As usually defined, the EC50 is the concentration at which the effect is half-maximal.

The source of these data is article PMC11358017, “Nucleotide metabolism in cancer cells fuels a UDP-driven macrophage cross-talk, promoting immunosuppression and immunotherapy resistance” (Nature Cancer, 2024).

The target in the assay is T1, P2Y6 (P2ry6^WT BMDMs) (Mus musculus, UniProt Q9ERK9).
T1 construct: native full-length receptor, endogenous in mouse bone marrow-derived macrophages (BMDMs); no tag
Put plainly: Fura-2 intracellular calcium response, BMDMs, Hill fit. Type of assay: cell-based. The following applies: agonist, native mouse BMDMs, peak F340/F380 normalized to ionomycin, pH 7.4, response absent in P2ry6^ΔMy BMDMs. (In general: Calcium assays in cells follow changes in intracellular calcium, usually with a dye or a luminescent sensor.)

T1 sequence (Q9ERK9 whole entry): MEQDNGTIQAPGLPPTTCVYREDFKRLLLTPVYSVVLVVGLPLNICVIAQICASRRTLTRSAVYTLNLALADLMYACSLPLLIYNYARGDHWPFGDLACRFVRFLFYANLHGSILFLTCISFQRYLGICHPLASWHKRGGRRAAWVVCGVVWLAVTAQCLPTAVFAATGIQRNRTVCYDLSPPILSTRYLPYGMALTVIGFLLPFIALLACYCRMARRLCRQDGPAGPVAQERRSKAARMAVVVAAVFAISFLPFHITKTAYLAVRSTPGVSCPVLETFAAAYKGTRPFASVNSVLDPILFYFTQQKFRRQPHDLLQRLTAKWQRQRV

For `O=c1ccn([C@@H]2O[C@H](COP(=O)(O)OP(=O)(O)O)[C@@H](O)[C@H]2O)c(=O)[nH]1` [UDP], the 50% effective concentration (EC50) (n = 3) was 42 ± 5 nM.
As to `O=c1ccn([C@@H]2O[C@H](COP(=O)(O)OP(=O)(O)OP(=O)(O)O)[C@@H](O)[C@H]2O)c(=O)[nH]1` [UTP], the EC50 (n = 6, possible conversion to UDP by ectonucleotidases) is 103 ± 12 nM.
